The values below come from patent US7576222B2, “Alkynyl-containing tryptophan derivative inhibitors of TACE/matrix metalloproteinase” (priority 2004, dated 2009).

Where two headings read alike, the source gives them in different places.

Assay [1] deals with TNF-α Secretion in Raw Cells (Raw 264.7 cells). Briefly: Cell-based assay for inhibition of TNF-α secretion in Raw cells. The note with it: read-out: TNF-α Secretion in Raw Cells IC50. The procedure:
Cell-Based Assay for Inhibition of TNF-A Secretion in Raw Cells
(§1) The basic measurement of the assay is the percentage of inhibition of TNF-α secretion and the IC50 determination by a fitting with the model-39 of LSW data analysis tool.
Raw 264.7 cells (ATCC Cat No. TIB-71) are maintained in DMEM medium containing 10% of serum, P/S, and Glutamine. […] For testing compounds, cells are cultured to confluence and are seeded the day before the experiment in 24 well culture dishes at 0.5 to 1 million/ml/well. On the next morning, the medium from the overnight culture is replaced with the fresh growth medium. The compounds are added at various concentrations at the 0.2% of final DMSO concentrations (10 μl of a 20% DMSO solution containing testing compounds is added to each well). The cells are pre-incubated with compounds for 1 hour. LPS (Sigma, L2262) is added to cells at a final concentration of 100 ng/ml (10 μl of a […] LPS solution freshly diluted from a 1 mg/ml LPS stock solution in PBS is added to each well) and cells are further incubated for 4 hours at 37° C. One milliliter (1 ml) of the supernatant was collected, cells are spun down and the supernatants are frozen at −80° C. until use.
The TNF-α and other proinflammatory cytokines were detected by ELISA assay according to the manufacturer's instruction (Biosource International, Inc., Camarillo, Calif.) (For IL-1b measurement in Raw cells, one round of freeze and thaw of the cells was required.)

Assay [2] has as its target T1, recombinant human catalytic domain of MMP-14 (Homo sapiens, UniProt P50281).
T1 construct: 177 amino acids corresponding to Tyr89-Gly265 of mature human enzyme; 20 kDa; purchased Chemicon International, Inc. CC1041
The assay can be described thus: biochemical. The text has this: (§2) A continuous assay was used in which the substrate is a synthetic peptide containing a fluorescent group (7-methoxycoumarin; Mca) that is quenched by energy transfer to a 2,4-dinitrophenyl group. See Knight, C. G. et al., FEBS Lett. (1992) 296: 263-266, incorporated herein by reference in its entirety. […] See Zhang, Y et al., Journal of Pharmacology and Experimental Therapeutics (JPET) (2004) 309:348-355, incorporated by reference in its entirety. The substrate used was Mca-PQGL-(3-[2,4-dinitrophenyl]-L-2,3-diaminopropionyl)-AR-OH (denoted as Wammp-5, custom synthesized by AnaSpec, Inc., San Jose, Calif.). The assay buffer consisted of 50 mM Hepes (pH 7.4), 100 mM NaCl, 5 mM CaCl2, and 0.005% Brij-35. Each well of black polystyrene 96-well plates contained a 200 μl reaction mixture consisting of assay buffer, purified MMP (final concentration of 25 ng/ml, prepared by diluting with the assay buffer), and varied concentrations of inhibitor (prepared by serially diluting a given inhibitor in DMSO in 96-well polypropylene plate). The plates were then incubated at 30° C. for 15 minutes. The enzymatic reactions were initiated by adding the substrate to a final concentration of 20 μM, and mixing 10 times with a pipette. The final DMSO concentration in the assay was 6.0%. The initial rate of the cleavage reaction was determined at 30° C. with a fluorescence plate reader (excitation filter of 330 nm and emission filter of 395 nm) immediately after substrate addition.
(§3) Plots of the inhibitor concentration versus the percent inhibition were fit to the following equation: y=(a−d)/[1+(x/c)^b]+d, a general sigmoidal curve with Hill slope, a to d. x is the inhibitor concentration under test. “y” is the percent inhibition. “a” is the limiting response as x approaches zero. As x increases without bound, y tends toward its limit d. “c” is the inflection point (IC50) for the curve. That is, y is halfway between the lower and upper asymptotes when x=c. “b” is the slope factor or Hill coefficient.
In-Vitro Fluorescence Assay of MMP-14 Activity

Assay [3] deals with T2, recombinant human catalytic domain of MMP-1 (Homo sapiens, UniProt P03956).
T2 construct: the recombinant human catalytic domain of MMP-1
T2 sequence (P03956 100-269 limits assumed): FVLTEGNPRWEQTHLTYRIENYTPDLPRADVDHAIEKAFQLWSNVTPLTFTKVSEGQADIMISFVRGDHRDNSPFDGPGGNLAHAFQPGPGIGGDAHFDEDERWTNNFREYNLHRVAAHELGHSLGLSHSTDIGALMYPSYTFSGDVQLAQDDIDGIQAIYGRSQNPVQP
Briefly: In-vitro fluorescence (FRET) assay of MMP-1 activity. The format is biochemical.
Text: In-Vitro Fluorescence Assay of MMP-1 Activity
A continuous assay was used in which the substrate is a synthetic peptide containing a fluorescent group (7-methoxycoumarin; Mca) that is quenched by energy transfer to a 2,4-dinitrophenyl group. See Knight, C. G. et al., FEBS Lett. (1992) 296: 263-266, incorporated herein by reference in its entirety. When the peptide was cleaved by MMP, a large increase in fluorescence was observed. The source of enzyme in the assay was the recombinant human catalytic domain of MMP-1. See Zhang, Y et al., Journal of Pharmacology and Experimental Therapeutics (JPET) (2004) 309:348-355, incorporated by reference in its entirety. The substrate used was Mca-PQGL-(3-[2,4-dinitrophenyl]-L-2,3-diaminopropionyl)-AR-OH (denoted as Wammp-5, custom synthesized by AnaSpec, Inc., San Jose, Calif.). The assay buffer consisted of 50 mM Hepes (pH 7.4), 100 mM NaCl, 5 mM CaCl2, and 0.005% Brij-35. Each well of black polystyrene 96-well plates contained a 200 μl reaction mixture consisting of assay buffer, purified MMP (final concentration of 25 ng/ml, prepared by diluting with the assay buffer), and varied concentrations of inhibitor (prepared by serially diluting a given inhibitor in DMSO in 96-well polypropylene plate). The plates were then incubated at 30° C. for 15 minutes. The enzymatic reactions were initiated by adding the substrate to a final concentration of 20 μM, and mixing 10 times with a pipette. The final DMSO concentration in the assay was 6.0%. The initial rate of the cleavage reaction was determined at 30° C. with a fluorescence plate reader (excitation filter of 330 nm and emission filter of 395 nm) immediately after substrate addition.
as §3

The target in assay [4] is T3, catalytic domain of the recombinant TACE protein (Homo sapiens, UniProt P78536).
T3 construct: The catalytic domain of the recombinant TACE protein was expressed and purified; made in house
T3 sequence (P78536 223-474 limits assumed): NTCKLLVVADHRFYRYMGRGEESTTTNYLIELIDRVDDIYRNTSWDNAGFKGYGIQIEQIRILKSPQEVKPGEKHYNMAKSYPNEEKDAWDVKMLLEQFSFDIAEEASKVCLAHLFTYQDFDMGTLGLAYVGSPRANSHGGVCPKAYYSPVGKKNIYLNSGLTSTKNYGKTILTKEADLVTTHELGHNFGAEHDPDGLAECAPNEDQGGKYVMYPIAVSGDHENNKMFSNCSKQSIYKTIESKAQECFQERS
Briefly: TACE FRET assay using TACE cat. The format is biochemical. The essentials:
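Enzyme (1 ug/ml) pretreated with inhibitor for 10 min at room temperature in 50 mM Tris-HCl pH 7.4, 25 mM NaCl, 4% glycerol, 0.005% Brij 35, then started with FRET peptide Abz-[sequence]-Dpa (2 mM stock). Initial rate taken from fluorescence slope; IC50 fitted with floated Hill slope and background.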

For assay [5], the system named is TNF-α Secretion in Human Whole Blood. The assay can be described thus: Human whole blood assay for LPS-induced TNF-α secretion. The note with it: fresh human blood, LPS 100 ng/ml, TNF-α by ELISA. The format is cell-based.
Text: as §1
(In general: An ELISA detects its analyte on a solid surface through an enzyme-linked reagent.)

Assay [6] concerns the target T4, recombinant human catalytic domain of MMP-13 (Homo sapiens, UniProt P45452).
T4 construct: catalytic domain of MMP-13 (165 amino acids, residues 104-268, 19 kDa)
The assay can be described thus: biochemical.
Text: as §2, §3
In-Vitro Fluorescence Assay of MMP-13 Activity
See Zhang, Y et al., Journal of Pharmacology and Experimental Therapeutics (JPET) (2004) 309:348-355, incorporated by reference in its entirety.

The next assay has as its target T5, recombinant human MMP-2 (Homo sapiens, UniProt P08253).
T5 construct: purchased Oncogene Research Products (Calbiochem) PF023
Briefly: In-vitro fluorescence (FRET) assay of MMP-2 activity. The class given is biochemical.
Text: as §2, §3
In-Vitro Fluorescence Assay of MMP-2 Activity

The mark [7] stands for this setting: TACE FRET assay, catalytic domain of recombinant TACE, read-out: TACE IC50.
[8] abbreviates: Raw 264.7 cells, LPS 100 ng/ml, 4 hours, TNF-α by ELISA.

T5 sequence (P08253 110-660): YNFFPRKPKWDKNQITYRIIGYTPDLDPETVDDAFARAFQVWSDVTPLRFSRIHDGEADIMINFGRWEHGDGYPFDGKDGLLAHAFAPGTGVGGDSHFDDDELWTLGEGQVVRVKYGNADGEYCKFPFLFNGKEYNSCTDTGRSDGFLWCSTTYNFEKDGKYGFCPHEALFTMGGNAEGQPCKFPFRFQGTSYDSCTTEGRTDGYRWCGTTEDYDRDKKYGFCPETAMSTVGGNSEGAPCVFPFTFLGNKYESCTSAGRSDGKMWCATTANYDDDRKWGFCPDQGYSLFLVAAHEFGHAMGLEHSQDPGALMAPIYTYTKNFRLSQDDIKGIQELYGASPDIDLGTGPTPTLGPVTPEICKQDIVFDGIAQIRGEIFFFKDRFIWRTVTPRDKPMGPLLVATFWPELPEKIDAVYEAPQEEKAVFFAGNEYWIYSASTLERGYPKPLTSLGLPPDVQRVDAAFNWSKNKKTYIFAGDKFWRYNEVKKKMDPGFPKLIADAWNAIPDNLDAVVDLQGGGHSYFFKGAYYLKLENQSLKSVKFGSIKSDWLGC

In the case of `CC#CCOc1ccc(S(=O)(=O)N[C@H](Cc2cn(Cc3ccc(OC)cc3)c3ccccc23)C(=O)O)cc1` [Example 35, N-{[4-(but-2-ynyloxy)phenyl]sulfonyl}-1-(4-methoxybenzyl)-D-tryptophan], the 50% inhibitory concentration (IC50) is more than 60 µM in assay [1] (Mus musculus, RAW264.7, 4 h); 13 µM in assay [2]; 0.08 µM in assay [4] (setting [7]). The inhibition at 33 µM in assay [3] (read-out: MMP-1 Inhibition) is 14%.

Consider `CC#CCOc1ccc(S(=O)(=O)N[C@@H](Cc2c[nH]c3ccc(C)cc23)C(=O)O)cc1` [Example 218, N-{[4-(but-2-ynyloxy)phenyl]sulfonyl}-5-methyl-L(or D)-tryptophan], for which the half-maximal inhibitory concentration (IC50) is more than 50 µM in assay [5]; 1.81 µM in assay [6]; 7.11 µM in assay [1] (setting [8]); 0.27 µM at recombinant human MMP-2; 6.82 µM in assay [2]; 0.14 µM in assay [4] (setting [7]). In assay [3] (Conc. 160 μM), the “MMP-1 Inhibition” value turned out to be 30%.

As to `CC#CCOc1ccc(S(=O)(=O)N[C@@H](Cc2c[nH]c3ccc(OCc4ccccc4)cc23)C(=O)O)cc1` [Example 224, 5-(benzyloxy)-N-{[4-(but-2-ynyloxy)phenyl]sulfonyl}-L(or D)-tryptophan], the figures for the IC50 (in assay [6]; on recombinant human MMP-2; in assay [2]) were 4.44 µM, 2.45 µM and 19.7 µM, respectively. Moreover, the “MMP-1 Inhibition” value in assay [3] (Conc. 83 μM) is reported as 19%.

In the case of `CC#CCOc1ccc(S(=O)(=O)NC(Cc2cn(Cc3ccc(OC)cc3)c3ccc(C)cc23)C(=O)O)cc1` (centres unmarked) [Example 47, N-{[4-(but-2-ynyloxy)phenyl]sulfonyl}-1-(4-methoxybenzyl)-5-methyltryptophan], the half-maximal inhibitory concentration (IC50) was determined as 0.66 µM on recombinant human MMP-2 and 11.6 µM in assay [2]. Further, the inhibition at 67 µM in assay [3] (read-out: MMP-1 Inhibition) was found to be 30%.

`CC#CCOc1ccc(S(=O)(=O)N[C@@H](Cc2c[nH]c3ccc(OC)cc23)C(=O)O)cc1` [Example 221, N-{[4-(but-2-ynyloxy)phenyl]sulfonyl}-5-methoxy-D(or L)-tryptophan]: the IC50 in assay [6] turned out to be 13.6 µM; in assay [1] (setting [8]), 57 µM; on recombinant human MMP-2 it was 1.27 µM; in assay [2], 20.7 µM; in assay [4] (setting [7]) it was 0.14 µM. For the same compound, the “MMP-1 Inhibition” value in assay [3] (Conc. 83 μM) was 9%.

`CC#CCOc1ccc(S(=O)(=O)NC(Cc2c[nH]c3ccc(OC)cc23)C(=O)O)cc1` (racemic) [Example 4, N-{[4-(but-2-ynyloxy)phenyl]sulfonyl}-5-methoxytryptophan]: the inhibition at 15 µM in assay [6] (read-out: MMP-13 Inhibition) worked out at 50%. Besides, the IC50 on recombinant human MMP-2 was 7.84 µM; in assay [2], 22.7 µM; in assay [4] it was 0.36 µM. Besides, in assay [3] (read-out: MMP-1 Inhibition), the inhibition at 1000 µM is 33%.

Broadly, the IC50 is the point on the concentration scale where inhibition reaches its midpoint. Broadly, the inhibition is the relative decrease from the control value, in per cent.
